Data from patent US7393869B2, “Methods of using thiazolidine derivatives to treat cancer or inflammation” (QLT Inc., priority 2002, dated 2008).

Experiments:
[1] = biological target: T1, PTPN1 (Homo sapiens, UniProt P18031); experiment: In vitro phosphatase assay (malachite green, phosphate release from ppC SRC 60 peptide); format: biochemical; details: read-out: Inhibition of PTPN1 IC50
T1 sequence (P18031 1-435): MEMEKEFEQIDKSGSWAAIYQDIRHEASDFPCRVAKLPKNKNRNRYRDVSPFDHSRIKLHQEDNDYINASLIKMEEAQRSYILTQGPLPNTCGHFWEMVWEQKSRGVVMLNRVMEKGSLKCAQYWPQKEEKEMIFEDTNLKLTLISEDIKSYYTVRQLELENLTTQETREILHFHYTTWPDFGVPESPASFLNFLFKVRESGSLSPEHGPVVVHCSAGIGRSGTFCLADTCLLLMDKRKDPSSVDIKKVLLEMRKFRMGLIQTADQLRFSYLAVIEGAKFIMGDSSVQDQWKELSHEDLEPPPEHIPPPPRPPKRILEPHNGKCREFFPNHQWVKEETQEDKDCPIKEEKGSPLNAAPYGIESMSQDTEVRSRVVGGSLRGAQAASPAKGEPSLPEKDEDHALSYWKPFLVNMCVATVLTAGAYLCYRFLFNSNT
Method: Compounds of formula (I) and formula (Ia) were tested in the following assay for their ability to inhibit the activity of the desired phosphatase.
The enzyme (phosphatase) activity was determined in a reaction that measured phosphate relase from tyrosine phospho-specific peptides using a method first described by Harder et al., Biochem. J. (1994), Vol. 298, pp. 395-401. This is a non-radioactive method for measuring free phosphate by the malachite green method first described by Van Veldhoven and Mannaerts, Anal Biochem. (1987), Vol. 161, pp. 45-48. 10× assay buffer (250 mM Tris:100 mM, β-mercaptoethanol, 50 mM EDTA; pH 7.2) was diluted to 5× concentration (conc.) with distilled H2O (dH2O). Then 71.4 μM of substrate working stock solution was prepared in dH2O. […]
(§1) The assay plate was incubated at room temperature (21° C.) for 15 minutes. […] The plate was “read” on Bio-tek Instruments EL312e microplate Bio-Kinetics™ Reader at 590 nm and the data collected as per instrument manual.
(§2) The blank and negative controls were read, and blanks were subtracted from the average of negative control values and sample values, and the % inhibition was expressed by the following formula: % Inhibition=100−[corrected sample reading/corrected Negative Control reading*100].

[2] = biological target: T2, PTPN12 (Homo sapiens, UniProt Q05209); experiment: as above; format: biochemical; details: read-out: Inhibition of PTPN12 IC50
T2 construct: The truncated version was used as it was far easier to handle and gave parallel results to the full length protein; made in house; host or cells: bacterial strain ER2566
T2 sequence (Q05209 28-293 limits assumed): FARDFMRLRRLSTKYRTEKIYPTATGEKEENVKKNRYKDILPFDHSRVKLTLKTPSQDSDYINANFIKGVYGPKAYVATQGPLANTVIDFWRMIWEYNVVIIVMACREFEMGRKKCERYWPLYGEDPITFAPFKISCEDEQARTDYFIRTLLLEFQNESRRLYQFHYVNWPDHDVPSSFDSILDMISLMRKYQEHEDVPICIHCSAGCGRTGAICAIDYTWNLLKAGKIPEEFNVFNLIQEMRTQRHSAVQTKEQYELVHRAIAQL
Source text: Expression of human truncated PTPN12 (PTP-PEST-N) as a fusion protein required that the cDNA be ligated into the polyclonal site situated in frame and upstream of the intein gene of the IMPACT™ expression vector pTWIN-II. The truncated version was used as it was far easier to handle and gave parallel results to the full length protein in comparison testing. For the purpose of simplicity, PTP-PEST-N will be used interchangeably with PTPN12 in these Examples.
Active PTPN12 enzyme is expressed from the IMPACT™ vector system in the bacterial strain ER2566. Recombinant PTPN12 protein is purified from bacterial cells using affinity chromatography on chitin-agarose beads followed by a chemical process whereby PTPN12 is released from its affinity tag. A complete quantitative and qualitative analysis of the protein is monitored using Coomassie-Blue staining of SDS-PAGE separated preparations and by PTPN12-specific western blotting. […]
(§3) The enzyme (phosphatase) activity was determined in a reaction that measured phosphate relase from tyrosine phospho-specific peptides using a method first described by Harder et al., Biochem. J. (1994), Vol. 298, pp. 395-401. […]
as §1

[3] = tested on: prostate cancer cell line PC3; experiment: Cell migration in a Boyden chamber; format: cell-based; details: cell line not given
Source text: A range of cell lines are used in this assay, particularly the prostate cancer cell line PC3 and PTPN12 mouse embryonic fibroblasts (MEFs). The role of PTPN12 in migration was established based on the observations of PTPN12 negative MEFs. Cell adhesion and migration are dynamic biological activities involving the assembly and disassembly of a large number of extracellular and intracellular molecules, for example, actin, which are regulated in turn by protein phosphorylation. […] Migration is reduced in PTPN12 knock-out MEFs. By extension, a PTPN12 inhibitor should reduce cell migration in a Boyden chamber. Therefore, as a readout for PTPN12 activity, the following assay is designed to analyze cell migration in Boyden chambers. […]
For tumour cell lines, stock cells (ie. PC3 cells) are grown to 50-70% confluency in T175 flasks. […] Fluorescence of migrated cells is read in a Fluoroskan Ascent FL™ (or equivalent) with bottom reading at excitation/emission wavelength of 485/538 nm. Only those cells that have migrated through the pores of the FluoroBlok™ membrane will be read. […]
Data is expressed as fluorescence unit (FU) from the sum of middle 25 areas per 24-well or as percentage of migration inhibition by following formula: % of invasion inhibition=100−FU of compound treated cell invasion/FU of DMSO treated cell invasion times 100. […]

[4] = biological target: T3, PTPN2 (Homo sapiens, UniProt P17706); experiment: In vitro phosphatase assay (malachite green, phosphate release from ppC SRC 60 peptide); format: biochemical; details: read-out: Inhibition of PTPN2 IC50
T3 construct: made in house; host or cells: bacterial expression system (IMPACT, New England BioLabs)
T3 sequence (P17706 1-415): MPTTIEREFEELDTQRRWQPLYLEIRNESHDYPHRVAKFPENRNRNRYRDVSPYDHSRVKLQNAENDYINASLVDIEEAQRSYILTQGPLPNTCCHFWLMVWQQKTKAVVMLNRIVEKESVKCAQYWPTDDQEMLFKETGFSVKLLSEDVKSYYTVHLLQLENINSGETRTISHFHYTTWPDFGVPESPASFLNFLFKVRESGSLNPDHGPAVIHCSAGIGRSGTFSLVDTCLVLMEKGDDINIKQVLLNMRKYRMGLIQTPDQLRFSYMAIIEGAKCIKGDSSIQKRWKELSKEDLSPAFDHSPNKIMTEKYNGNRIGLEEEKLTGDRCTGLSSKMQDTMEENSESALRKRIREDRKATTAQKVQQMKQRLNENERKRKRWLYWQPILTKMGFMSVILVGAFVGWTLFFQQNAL
Source text: PTPN2 was cloned from a human placental cDNA library in the IMPACT™ (New England BioLabs) bacterial expression system. The technology was first described by Chong et al., Gene (1997), Vol. 192, pp. 271-281. The IMPACT™ Protein Purification System was purchased commercially from New England BioLabs. The resulting product was used in the development of a protein phosphatase assay for high-throughput screening (HTS) of target molecules and in other assays described herein (see Example 2).
This activity was considered to be in the high range as compared to other recombinant protein tyrosine phosphatases assayed. […]
as §3, §1, §2

[5] = tested on: H460 Cells; experiment: Cell proliferation (3H-thymidine incorporation); format: cell-based; details: Homo sapiens, NCI-H460
Source text: (§4) This procedure (Jelinkova, R. B. et al., “Antiproliferative effect of a lectin- and anti-Thy-1.2 antibody-targeted HPMA copolymer-bound doxorubicin on primary and metastatic human colorectal carcinoma and on human colorectal carcinoma transfected with the mouse Thy-1.2 gene”, Bioconjug. Chem. (2000, September-October), Vol. 11, No. 5, pp. 664-73) is used to assess the effect compounds have on various cell lines with respect to proliferation. The rate of anchorage-independent growth of various tumor cells is quantified by measuring the amount of free isotopic thymidine that has been incorporated into the cells over a period of time. The effect of any compound to inhibit the proliferation of various tumor cells could be used as an indication of its ability to prevent disease progression in cancer.
(§5) Cultured tumour cells are harvested cells as per normal procedures: i.e. trypsinize, centrifuge and count cells. A volume of 90 μL is used to seed 5,000 cells/well in a 96 well plate. Cells are incubated for 24 hours at 37° C. under 5% CO2. After incubation, cells should be 80-90% confluent.
(§6) ^3H-thymidine (Amersham) is diluted in cell culture media to a concentration of 100 μCi/mL. The test compound is diluted in the thymidine broth to 10× the final desired concentration.
(§7) Then 10 μL of diluted compound is added to the 90 μL of cells already present in the 96-well plates. Six replicates wells are done per treatment in columns 2 to 11. Plates were mixed by rocking.
(§8) A known cytotoxic compound such as staurosporine is used in relatively high concentrations as a positive control in column 1. Diluted DMSO is used as a negative control in column 12. The plate is incubated for exactly 24 hours at 37° C.
(§9) After incubation, plates are observed under the microscope for obvious cell death, abnormal cell shape, crystal formation of the compound, etc. Then 25 μL volume of cold 50% TCA is added slowly to the 100 μL volume already in each well, and incubated for 1-2 hours at 4° C. The plates are then washed 5× in tap water and allowed to dry completely (usually overnight) at ambient temperature. Finally, 100 μL of scintillation fluid is added to each well and the plates are counted in a Wallac 1450 Microbeta™ counter according to user manual instructions.
(§10) The amount of inhibition is determined by the following formula: % inhibition=100−[(AVG treatment−AVG positive control)/[…]]

[6] = tested on: PC3 Cells; experiment: Cell proliferation (3H-thymidine incorporation); format: cell-based; details: Homo sapiens, PC-3
Source text: as §4, §5, §6, §7, §8, §9, §10

Structure (SMILES) | IC50 [1] | IC50 [2] | inhibition at 25 µM [3] | IC50 [4] | inhibition at 50 µM [5] | inhibition at 50 µM [6]
Cc1ccc(C=C2SC(=S)N(CCC(=O)Nc3ccc(S(N)(=O)=O)cc3)C2=O)cc1 [3-[5-(4-methylbenzylidene)-4-oxo-2-thioxothiazolidin-3-yl]-N-(4-sulfamoylphenyl)-propionamide] | 3000 nM | 1500 nM | 55% | 1600 nM | 45% | 35%
Cc1ccc(C=C2SC(=S)N(CCC(=O)Nc3ccc(S(=O)(=O)Nc4nccs4)cc3)C2=O)cc1 [3-[5-(4-methylbenzylidene)-4-oxo-2-thioxothiazolidin-3-yl]-N-[4-(thiazol-2-ylsulfamoyl)-phenyl]-propionamide] | 1500 nM | 1100 nM | 87% | 950 nM | 43% | 47%
